From PubChem BioAssay AID2060492 (Molecular Pharmacology Branch, DTP, NCI, 2025)

Test system: 695427-040-R-J1-PDC complex spheroids, viability percent T/C
Test: Anticancer human tumor 695427-040-R-J1-PDC patient-derived colon adenocarcinoma cell line growth inhibition [GQUAD]
Details: for IC50: curve of first compound; for viability, T/C: stronger effect = lower value
From the text: DNA G-quadruplex Stabilizer Agents in Combinations in Complex Spheroids
A high-throughput screen of multi-cell type tumor spheroids was designed to identify active combinations of DNA G-quadruplex stabilizer agents and targeted small molecules. Complex spheroids include a stromal component modeled by human endothelial cells (HUVEC) and fibroblasts modeled by human mesenchymal stem cells (MSCs). The concentration ranges selected for each drug and investigational agent were based upon clinically achievable concentrations if the clinical Cmax of the agent was known.
Compounds. The drugs and investigational agents: pidnarulex (CX-5461; NSC782164), APTO-253 (NSC789042), BRACO-19 (NSC847499), peposertib (NSC802822), ceralasertib (NSC780249), elimusertib (NSC800525), camonsertib (NSC841442), AZD-1390 (NSC803789), olaparib (NSC753686), talazoparib (NSC767125), ART-558 (NSC835418), sotorasib (NSC818433), MRTX-1133 (NSC836407), SN-38 (NSC673596), topotecan (NSC609699), etoposide (NSC141540), doxorubicin (NSC123127), gemcitabine (NSC613327), 5-fluorouracil (NSC19893), paclitaxel (NSC125973), vemurafenib (NSC761431), panobinostat (NSC761190), R-306465 (JNJ-16241199; NSC773264), adavosertib (NSC754352), TP-3654 (NSC805149), carboplatin (NSC241240), KSQ-4279 (NSC840948), and staurosporine (NSC755774) were obtained from the National Cancer Institute (NCI) Developmental Therapeutics Program Chemical Repository (34). The FDA-approved anticancer drug set is available from the NCI Developmental Therapeutics Program. […] The stock solutions were prepared in dimethyl sulfoxide (DMSO, Sigma-Aldrich, St. Louis, MO, cat. D2650) at 800-fold the tested concentration and stored at -70 degrees C prior to their use. All drugs and investigational agents were tested over a range starting from a high concentration at or near the clinical Cmax and decreasing in half-log increments. If the clinical Cmax for an agent had not been determined, the highest concentration tested was 10 microM.
2.3 Cell Culture. All cells were maintained in an incubator at 37 degrees C and 5% CO2 with 95% humidity. The PDC lines were cultured according to standard operating procedures established by the NCI PDMR. All PDCs were thawed and cultured in Matrigel-coated flasks prepared with a working solution of 1X Ham's F-12 nutrient mix, without supplementation (Invitrogen, cat. 11765054), 100 U/mL penicillin-streptomycin (Invitrogen, cat. 15140122), and 2.5% Matrigel (Corning Inc., cat. 354248) for the first three passages. The 857933-349-R-J2-PDC line was cultured in 6C/Colon 1B media, which includes advanced DMEM/F-12 (Thermo Fisher Scientific, cat. 12634028), 10 mM HEPES (Thermo Fisher Scientific, cat. 15630080), 1X GlutaMAX supplement (Thermo Fisher Scientific, cat. 35050061), 0.1 mg/mL primocin (InvivoGen, cat. ant-pm-2), 10% defined fetal bovine serum, heat inactivated (HyClone Laboratories Inc., cat. SH30070.03HI), 50% L-WRN conditioned media (ATCC, cat. CRL-3276), 1.25 mM N-Acetyl-L-cysteine (Sigma-Aldrich, cat. A9165), 10 mM nicotinamide (Sigma-Aldrich, cat. N0636), 1X B-27 supplement (Thermo Fisher Scientific, cat. 17504044), 1X N-2 supplement (Thermo Fisher Scientific, cat. 17502048), 10 microM Y-27632 dihydrochloride (Tocris Bioscience, cat. 1254), and 50 ng/mL human EGF recombinant protein (Thermo Fisher Scientific, cat. PHG0311). The 485176-168-R4-J1-PDC line was cultured in Panc media, which includes all 6C/Colon 1B media components plus 100 ng/mL human FGF-10 (Thermo Fisher Scientific, cat. 100-26), 500 nM SB-431542 (Selleckchem, cat. S1067), and gastrin (Tocris, cat. 3006).
[…]

[1] = second compound 0.0316 µM, first compound 0.0316 µM
[2] = second compound 0.0316 µM, first compound 0.1 µM
[3] = second compound 0.0316 µM, first compound 0.316 µM
[4] = second compound 0.0316 µM, first compound 1 µM
[5] = second compound 0.0316 µM, first compound 3.16 µM
[6] = second compound 0.0316 µM, first compound 10 µM
[7] = second compound 0.1 µM, first compound 0.0316 µM
[8] = second compound 0.1 µM, first compound 0.1 µM
[9] = second compound 0.1 µM, first compound 0.316 µM
[10] = second compound 0.1 µM, first compound 1 µM
[11] = second compound 0.1 µM, first compound 3.16 µM
[12] = second compound 0.1 µM, first compound 10 µM
[13] = second compound 0.316 µM, first compound 0.0316 µM
[14] = second compound 0.316 µM, first compound 0.1 µM
[15] = second compound 0.316 µM, first compound 0.316 µM
[16] = second compound 0.316 µM, first compound 1 µM
[17] = second compound 0.316 µM, first compound 3.16 µM
[18] = second compound 0.316 µM, first compound 10 µM
[19] = second compound 1 µM, first compound 0.0316 µM
[20] = second compound 1 µM, first compound 0.1 µM
[21] = second compound 1 µM, first compound 0.316 µM
[22] = second compound 1 µM, first compound 1 µM
[23] = second compound 1 µM, first compound 3.16 µM
[24] = second compound 1 µM, first compound 10 µM
[25] = second compound 3.16 µM, first compound 0.0316 µM
[26] = second compound 3.16 µM, first compound 0.1 µM
[27] = second compound 3.16 µM, first compound 0.316 µM
[28] = second compound 3.16 µM, first compound 1 µM
[29] = second compound 3.16 µM, first compound 3.16 µM
[30] = second compound 3.16 µM, first compound 10 µM
[31] = second compound 10 µM, first compound 0.0316 µM
[32] = second compound 10 µM, first compound 0.1 µM
[33] = second compound 10 µM, first compound 0.316 µM
[34] = second compound 10 µM, first compound 1 µM
[35] = second compound 10 µM, first compound 3.16 µM
[36] = second compound 10 µM, first compound 10 µM
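Also: spheroids exposed to compounds for seven days before readout.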

C=CCn1c(=O)c2cnc(Nc3ccc(N4CCN(C)CC4)cc3)nc2n1-c1cccc(C(C)(C)O)n1 + CN(C)c1ccc(Nc2c3ccc(NC(=O)CCN4CCCC4)cc3nc3cc(NC(=O)CCN4CCCC4)ccc23)cc1 was tested, and the IC50 (second compound 0.0316 µM) was > 10 µM, the IC50 (second compound 0.1 µM) was > 10 µM and the IC50 (second compound 0.316 µM) was > 10 µM. The IC50 (second compound 1 µM) was > 10 µM, the IC50 (second compound 3.16 µM) was 8.77 µM and the IC50 (second compound 10 µM) was 5.2 µM. It also gave a viability, T/C [1] of 104%, a viability, T/C [2] of 104% and a viability, T/C [3] of 87.5%. The viability, T/C [4] was 83.2%, the viability, T/C [5] was 66.6% and the viability, T/C [6] was 61.7%. It also gave a viability, T/C [7] of 97.8%, a viability, T/C [8] of 93.9% and a viability, T/C [9] of 93.2%. The viability, T/C [10] was 77.4%, the viability, T/C [11] was 71.2% and the viability, T/C [12] was 59.3%. It also gave a viability, T/C [13] of 101%, a viability, T/C [14] of 89.1% and a viability, T/C [15] of 85.9%. It also gave a viability, T/C [16] of 85.2%, a viability, T/C [17] of 72.8% and a viability, T/C [18] of 53.3%. For the same molecule, the viability, T/C [19] was 95.5%, the viability, T/C [20] was 103% and the viability, T/C [21] was 81.9%. The viability, T/C [22] was 77.2%, the viability, T/C [23] was 66.9% and the viability, T/C [24] was 52.3%. It also gave a viability, T/C [25] of 95.2%, a viability, T/C [26] of 91.3% and a viability, T/C [27] of 87.9%. It also gave a viability, T/C [28] of 80.9%, a viability, T/C [29] of 63.8% and a viability, T/C [30] of 48.3%. It also gave a viability, T/C [31] of 91.6%, a viability, T/C [32] of 84.1% and a viability, T/C [33] of 82.3%. For the same molecule, the viability, T/C [34] was 67.8%, the viability, T/C [35] was 56.4% and the viability, T/C [36] was 42%.
In the case of COc1ncnc(C2CC2)c1-c1ncc2cnn(Cc3ccc(-c4nc(C(F)(F)F)cn4C(C)C)cc3)c2n1 + CN(C)c1ccc(Nc2c3ccc(NC(=O)CCN4CCCC4)cc3nc3cc(NC(=O)CCN4CCCC4)ccc23)cc1, the IC50 (second compound 0.0316 µM) is reported as > 10 µM, the IC50 (second compound 0.1 µM) is reported as > 10 µM and the IC50 (second compound 0.316 µM) is reported as > 10 µM. For the same molecule, the IC50 (second compound 1 µM) was > 10 µM, the IC50 (second compound 3.16 µM) was > 10 µM and the IC50 (second compound 10 µM) was > 10 µM. It also gave a viability, T/C [1] of 101%, a viability, T/C [2] of 92.4% and a viability, T/C [3] of 91.7%. It also gave a viability, T/C [4] of 96.4%, a viability, T/C [5] of 105% and a viability, T/C [6] of 102%. It also gave a viability, T/C [7] of 105%, a viability, T/C [8] of 95.4% and a viability, T/C [9] of 91.1%. It also gave a viability, T/C [10] of 93.2%, a viability, T/C [11] of 101% and a viability, T/C [12] of 101%. The viability, T/C [13] was 97.7%, the viability, T/C [14] was 97.5% and the viability, T/C [15] was 88.9%. For the same molecule, the viability, T/C [16] was 94.3%, the viability, T/C [17] was 96.1% and the viability, T/C [18] was 83.1%. For the same molecule, the viability, T/C [19] was 96.7%, the viability, T/C [20] was 93.7% and the viability, T/C [21] was 91.5%. The viability, T/C [22] was 91.3%, the viability, T/C [23] was 101% and the viability, T/C [24] was 93.3%. For the same molecule, the viability, T/C [25] was 93.9%, the viability, T/C [26] was 91.7% and the viability, T/C [27] was 84.9%. The viability, T/C [28] was 96.6%, the viability, T/C [29] was 99% and the viability, T/C [30] was 92.9%. For the same molecule, the viability, T/C [31] was 83.3%, the viability, T/C [32] was 80.6% and the viability, T/C [33] was 85.5%. It also gave a viability, T/C [34] of 80.8%, a viability, T/C [35] of 79.7% and a viability, T/C [36] of 75%.
